Assay results published in patent US10548894B2, “Combination therapy” (Array BioPharma Inc., priority 2013, dated 2020).

Experiments:
[1] = test system: A-375 cells expressing truncated p61-BRAFV600E; assay: ATP-based CTG (Cell Titer Glo) cell viability assay, 72 h; details: Homo sapiens, A-375 p61 BRafV600E, single agent
Description: (§1) Compound stocks are prepared in DMSO at a final concentration of 10 mM.
(§2) A-375 and WM-266-4 cells were purchased from American Type Culture Collection (ATCC). The A-375 cells were cultured in DMEM medium (ATCC) and the WM-266-4 cells were cultured in EMEM medium (ATCC) both supplemented with 10% fetal bovine serum (Gibco) and incubated at 37° C./5% CO2. The cell lines engineered to express commonly occurring alleles indicative of resistance were acquired from Novartis-Emeryville. These resistant models include, A-375 cells expressing mutant MEK1P124L, truncated p61-BRAFV600E, or mutant NRASQ61K, and WM-266-4 cells expressing mutant MEK1C121S, truncated p61-BRAFV600E, or mutant NRASQ61K. These cells were cultured in the appropriate parental medium with selection marker G418 and in the presence of 5 uM LFE158 (MEK mutants) or LIH720 (truncated p61-BRAFV600E).
(§3) For screening, cells were seeded in 80 ul of medium in 384-well plates (Thermo Scientific, cat#4332) at 500 (A-375) or 750 (WM-266-4) cell densities per well using a MultiDrop Combi (Thermo-Fisher) with an 8-channel standard cassette. To promote an even distribution of cells across the entire well, cells were briefly centrifuged at 1000 RPM and incubated at room temperature 30 minutes. All plates were incubated at 37° C., 5% CO2 for 24 h prior to compound addition. Compound stock was freshly prepared in the appropriate culture medium, and added using a PAA robot equipped with a 200n1 pin tool. In a minimum of three replicate wells, single agent and combination effects after 72 hours, were assessed by both quantification of cellular ATP levels via Cell Titer Glo (Promega) according to the manufacturer's protocol and by microscopy imaging. For imaging, cells were fixed to the plates and permeabilized with a solution of 10% PFA, 0.3% TX-100 in PBS via a WellMate dispenser with controlled dispensing speeds. Cell nuclei were stained with Hoechst 33342 (H3570, Invitrogen), and all necessary washing steps were performed by a BioTek washer. […]

[2] = test system: WM-266-4 cells expressing mutant NRASQ61K; assay: as above; details: Homo sapiens, WM-266-4 NRASQ61K, single agent
Description: as §1, §2, §3

[3] = test system: WM-266-4 cells expressing truncated p61-BRAFV600E; assay: as above; details: Homo sapiens, WM-266-4 p61 BRafV600E, single agent
Description: as §1, §2, §3

COLO 741 = assay: xCELLigence real-time impedance growth assay; type: cell-based; details: Formula (I) 500 nM, Compound H 1 uM
Description: (§4) Shown is the growth in real time of the (Top A) COLO 741 and (Bottom B) SK-MEL-5 cell lines as measured using the xCELLigence impedance-based cell analyzer as discussed in Example 5. Where indicated FGF2 and Compound H were supplemented to the media at concentrations of 100 ng/ml, and 1 uM, respectively. The Compound of Formula (I) was used at 500 nM in (A) and 100 nM (B).
(§5) For CellTiter-Glo™ assays, cells were dispensed into tissue culture treated 96-well plates (Costar, catalog number 3904) with a final volume of 80 μL of medium and at density of 3000 cells per well. 12 to 24 hrs after plating, 20 μL of each compound dilution series were transferred to plates containing the cells, resulting in compound concentration ranges of 2700 nM to 3.7 nM by 3-fold dilutions and a final DMSO concentration of 0.16%. The total volume in each well was […]. Plates were incubated for 72 hrs and the effects of compounds on cell proliferation was determined using the CellTiter-Glo™ Luminescent Cell Viability Assay (CTG, Promega) and a Victor™ X4 plate reader (Perkin Elmer). For real-time growth assays cells were seeded into xCELLigence E-plates (Roche catalogue number 05232368001) at a density of 4000 cells per well in a total of 90 μl of media and 24 hrs after plating, 11 μl of media with or without compound was added to the wells. 2-4 replicate wells were plated for all cell lines and treatment groups with the exception of LGX818+FGF2 treated COLO 741 cells (N=1). Where indicated final concentrations of compounds and growth factor were 1 uM for Compound H, 100 ng/ml for FGF2, and either 100 nM (SK-MEL-5) or 500 nM (COLO 741) for the Compound of Formula (I). Cells were continuously monitored every two hours for seven days with the xCELLigence real-time impedance based cell analyzer. Impedance was measured using the electrodes on the E-plates, with increasing surface area coverage of cells creating greater electrode impedance. […] In all cases cell index values were normalized to a timepoint immediately following the addition of compound.
(§6) To determine whether rescue of BRAFV600E melanoma cell lines by FGF2 was dependent on FGFR signaling, we examined whether the selective FGFR inhibitor Compound H could prevent FGF2-mediated rescue. Two cell lines which were rescued to varying degrees by FGF2 (COLO 741, and SK-MEL-5, Table 8-1) were cultured in media containing the Compound of Formula (I) and FGF2 either in the presence or absence of Compound H and growth measured in real time.

SK-MEL-5 = assay: xCELLigence real-time impedance growth assay; type: cell-based; details: Formula (I) 100 nM, Compound H 1 uM
Description: as §4, §5, §6

[4] = test system: WM-266-4 cells expressing truncated p61-BRAFV600E; assay: Microscopy imaging assay (viable nuclei count), 72 h; type: cell-based; details: Homo sapiens, WM-266-4 p61 BRafV600E, single agent
Description: as §1, §2
as §3, with “imaging.” for “imaging. For imaging, cells were fixed to the plates and permeabilized with a solution of 10% PFA, 0.3% TX-100 in PBS via a WellMate dispenser with controlled dispensing speeds. Cell nuclei were stained with Hoechst 33342 (H3570, Invitrogen), and all necessary washing steps were performed by a BioTek washer.”
An automated image analysis pipeline was established using custom-made scripts in the open-source, statistical programming language R, and functions of the BioConductor package EBImage. The goal was to quantify the number of viable nuclei (cells) per well as an approximation for cell viability. […]

## COC(=O)N[C@@H](C)CNc1nccc(-c2cn(C(C)C)nc2-c2cc(Cl)cc(NS(C)(=O)=O)c2F)n1 [Compound of Formula (I)]
[1]
  IC50: 576 nM
[2]
  IC50: 1120 nM
[3]
  IC50: 906 nM
COLO 741; COLO 741, FGF2 100 ng/ml
  growth in real time (cell index): growth suppression was abrogated
COLO 741; COLO 741, absence of FGF2
  growth in real time (cell index): suppressed the growth
SK-MEL-5; SK-MEL-5, FGF2 100 ng/ml
  growth in real time (cell index): growth suppression was abrogated
SK-MEL-5; SK-MEL-5, absence of FGF2
  growth in real time (cell index): suppressed the growth
[4]
  IC50: 933 nM
